Test results as given in ChEMBL document CHEMBL6087474, “Discovery of an Efficacious RET PROTAC Degrader with Enhanced Antiproliferative Activity against Resistant Cancer Cells Harboring RET Solvent-Front Mutations” (J Med Chem, 2025).
The source made the active and inactive calls. The calls are words filed in the database; no cut-off is given here.

Experiments:
BaF3 [1] = test: Antiproliferative activity against mouse BaF3 cells stably expressing KIF5B-RET fusion protein incubated for 72 hrs by CCK-8 assay; type: functional, cell-based; settings: BaF3, 72 h
BaF3 [2] = test: Antiproliferative activity against mouse BaF3 cells stably expressing KIF5B-RET-G810C mutant incubated for 72 hrs by CCK-8 assay; type: functional, cell-based; settings: BaF3, 72 h
BaF3 [3] = test: Antiproliferative activity against mouse BaF3 cells stably expressing KIF5B-RET-G810R mutant incubated for 72 hrs by CCK-8 assay; type: functional, cell-based; settings: BaF3, 72 h
[4] = Potency index, ratio of selpercatinib IC50 to test compound IC50 for antiproliferative activity against mouse BaF3 cells stably expressing KIF5B-RET-G810R mutant incubated for 72 hrs by CCK-8 assay; type: functional
[5] = target: Proto-oncogene tyrosine-protein kinase receptor Ret (Homo sapiens, UniProt P07949); test: Inhibition of wildtype RET (unknown origin) in presence of ATP by FRET-based Z'-Lyte assay
Sequence of Proto-oncogene tyrosine-protein kinase receptor Ret (P07949 whole entry): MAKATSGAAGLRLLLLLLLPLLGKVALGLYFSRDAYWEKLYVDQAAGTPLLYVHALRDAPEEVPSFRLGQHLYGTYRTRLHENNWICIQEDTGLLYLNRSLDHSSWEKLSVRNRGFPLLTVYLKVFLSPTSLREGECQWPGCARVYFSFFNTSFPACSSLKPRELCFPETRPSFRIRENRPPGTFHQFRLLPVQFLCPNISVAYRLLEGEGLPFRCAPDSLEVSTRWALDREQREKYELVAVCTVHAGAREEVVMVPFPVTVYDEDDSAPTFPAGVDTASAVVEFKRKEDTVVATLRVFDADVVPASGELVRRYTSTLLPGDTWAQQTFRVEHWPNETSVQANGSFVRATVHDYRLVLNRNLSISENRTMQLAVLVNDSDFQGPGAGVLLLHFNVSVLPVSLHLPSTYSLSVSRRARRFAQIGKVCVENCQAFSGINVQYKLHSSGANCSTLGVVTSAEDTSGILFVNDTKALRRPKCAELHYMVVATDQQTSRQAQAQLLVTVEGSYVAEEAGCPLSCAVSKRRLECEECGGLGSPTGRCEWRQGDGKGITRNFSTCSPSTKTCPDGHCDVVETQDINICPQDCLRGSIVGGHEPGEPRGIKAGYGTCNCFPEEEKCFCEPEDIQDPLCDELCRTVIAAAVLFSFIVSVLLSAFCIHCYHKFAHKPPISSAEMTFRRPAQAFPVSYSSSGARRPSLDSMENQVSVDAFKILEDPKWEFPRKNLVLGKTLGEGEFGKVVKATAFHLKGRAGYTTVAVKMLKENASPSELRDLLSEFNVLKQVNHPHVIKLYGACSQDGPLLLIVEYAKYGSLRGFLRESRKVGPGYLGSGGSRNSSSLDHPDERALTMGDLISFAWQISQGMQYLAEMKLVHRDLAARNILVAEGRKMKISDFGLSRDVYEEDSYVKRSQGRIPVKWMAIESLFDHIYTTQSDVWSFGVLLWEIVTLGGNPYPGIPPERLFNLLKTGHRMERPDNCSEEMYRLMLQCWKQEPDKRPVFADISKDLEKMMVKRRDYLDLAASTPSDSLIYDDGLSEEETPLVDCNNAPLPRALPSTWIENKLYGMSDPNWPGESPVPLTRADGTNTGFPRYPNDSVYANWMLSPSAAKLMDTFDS

[6] = target: Protein cereblon/Proto-oncogene tyrosine-protein kinase receptor Ret/Kinesin-1 heavy chain (Homo sapiens) (UniProt P07949+P33176+Q96SW2); test: PROTAC activity at CRBN/KIF5B-RET in human LC-2-ad cells assessed as induction of RET degradation at 11.1 nM measured after 6 hrs by Western blotting analysis relative to control; type: cell-based
Sequence of Protein cereblon/Proto-oncogene tyrosine-protein kinase receptor Ret/Kinesin-1 heavy chain (Homo sapiens) (P07949 whole entry, looked up): as the sequence (P07949 whole entry) above
Sequence of Protein cereblon/Proto-oncogene tyrosine-protein kinase receptor Ret/Kinesin-1 heavy chain (Homo sapiens) (P33176 whole entry, looked up): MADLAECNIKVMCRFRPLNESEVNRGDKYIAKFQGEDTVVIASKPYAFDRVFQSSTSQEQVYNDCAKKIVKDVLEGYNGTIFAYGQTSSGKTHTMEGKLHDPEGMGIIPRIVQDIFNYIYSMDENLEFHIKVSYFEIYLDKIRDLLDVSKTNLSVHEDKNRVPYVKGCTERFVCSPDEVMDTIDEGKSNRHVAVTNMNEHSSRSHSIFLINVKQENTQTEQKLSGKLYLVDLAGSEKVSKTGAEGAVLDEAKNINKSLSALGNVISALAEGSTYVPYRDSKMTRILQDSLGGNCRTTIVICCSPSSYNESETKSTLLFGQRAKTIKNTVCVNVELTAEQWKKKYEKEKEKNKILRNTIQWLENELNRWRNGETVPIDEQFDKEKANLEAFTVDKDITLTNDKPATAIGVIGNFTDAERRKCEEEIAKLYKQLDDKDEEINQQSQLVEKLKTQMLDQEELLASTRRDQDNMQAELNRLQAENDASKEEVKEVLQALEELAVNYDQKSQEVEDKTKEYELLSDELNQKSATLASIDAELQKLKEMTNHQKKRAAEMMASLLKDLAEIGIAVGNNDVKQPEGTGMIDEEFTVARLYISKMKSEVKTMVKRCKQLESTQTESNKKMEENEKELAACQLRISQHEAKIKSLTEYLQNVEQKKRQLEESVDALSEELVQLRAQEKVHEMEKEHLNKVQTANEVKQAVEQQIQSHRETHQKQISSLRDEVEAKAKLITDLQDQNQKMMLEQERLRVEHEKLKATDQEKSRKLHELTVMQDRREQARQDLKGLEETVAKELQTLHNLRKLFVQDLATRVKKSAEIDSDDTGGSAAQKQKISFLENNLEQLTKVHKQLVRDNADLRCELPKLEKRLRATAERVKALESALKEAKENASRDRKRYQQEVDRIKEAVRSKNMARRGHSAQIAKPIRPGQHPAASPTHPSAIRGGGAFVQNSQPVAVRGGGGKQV
Sequence of Protein cereblon/Proto-oncogene tyrosine-protein kinase receptor Ret/Kinesin-1 heavy chain (Homo sapiens) (Q96SW2 whole entry, looked up): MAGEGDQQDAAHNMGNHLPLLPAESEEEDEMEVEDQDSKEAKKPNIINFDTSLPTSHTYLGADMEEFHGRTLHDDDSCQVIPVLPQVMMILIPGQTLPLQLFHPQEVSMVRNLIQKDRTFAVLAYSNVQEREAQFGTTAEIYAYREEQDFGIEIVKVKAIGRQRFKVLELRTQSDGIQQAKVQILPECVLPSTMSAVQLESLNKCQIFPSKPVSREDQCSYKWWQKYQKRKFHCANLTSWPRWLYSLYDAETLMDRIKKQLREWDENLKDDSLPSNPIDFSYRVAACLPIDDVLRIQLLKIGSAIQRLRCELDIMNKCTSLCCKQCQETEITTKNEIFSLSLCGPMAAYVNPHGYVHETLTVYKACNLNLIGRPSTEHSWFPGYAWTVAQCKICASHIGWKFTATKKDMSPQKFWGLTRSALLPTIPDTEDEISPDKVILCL

[7] = PROTAC activity at CRBN/KIF5B-RET-V804M mutant (unknown origin) expressed in mouse BaF3 cells assessed as induction of RET degradation measured after 6 hrs by Western blot analysis; type: cell-based; settings: BaF3, 6 h
BaF3 [8] = test: PROTAC activity at CRBN/CK1alpha in mouse BaF3 cells overexpressing KIF5B-RET assessed as induction of […] at 10 to 1000 nM incubated for 6 hrs by Western blot analysis; type: cell-based; settings: dose 10-1000 nM
BaF3 [9] = test: Antiproliferative activity against mouse BaF3 cells stably expressing KIF5B-RET-V804L mutant incubated for 72 hrs by CCK-8 assay; type: functional, cell-based; settings: BaF3, 72 h
[10] = Potency index, ratio of selpercatinib IC50 to test compound IC50 for antiproliferative activity against mouse BaF3 cells stably expressing CCDC6-RET-G810C mutant incubated for 72 hrs by CCK-8 assay; type: functional
[11] = Effect on RET protein level in mouse BaF3 cells stably expressing wildtype KIF5B-RET assessed as fold change at 11.1 nM measured after 6 hrs by Western blot analysis (reference value: 1); type: functional
[12] = Effect on RET protein level in mouse BaF3 cells stably expressing wildtype KIF5B-RET assessed as fold change at 33.3 nM measured after 6 hrs by Western blot analysis (reference value: 1); type: functional
[13] = Effect on RET protein level in mouse BaF3 cells stably expressing wildtype KIF5B-RET assessed as fold change at 300 nM measured after 6 hrs by Western blot analysis (reference value: 1); type: functional
[14] = Effect on Shc protein level in mouse BaF3 cells stably expressing wildtype KIF5B-RET assessed as fold change at 100 nM measured after 6 hrs by Western blot analysis; type: functional
[15] = Effect on RET protein level in mouse BaF3 cells stably expressing KIF5B-RET-V804M mutant assessed as fold change at 11.1 nM measured after 6 hrs by Western blot analysis (reference value: 1); type: functional
[16] = Effect on RET protein level in mouse BaF3 cells stably expressing KIF5B-RET-V804M mutant assessed as fold change at 33.3 nM measured after 6 hrs by Western blot analysis (reference value: 1); type: functional
[17] = Effect on RET protein level in mouse BaF3 cells stably expressing KIF5B-RET-V804M mutant assessed as fold change at 100 nM measured after 6 hrs by Western blot analysis (reference value: 1); type: functional
[18] = Effect on Shc protein level in mouse BaF3 cells stably expressing KIF5B-RET-G810C mutant assessed as fold change at 100 nM measured after 6 hrs by Western blot analysis (reference value: 1); type: functional
[19] = Effect on RET protein level in mouse BaF3 cells stably expressing KIF5B-RET-G810R mutant assessed as fold change at 33.3 nM measured after 6 hrs by Western blot analysis (reference value: 1); type: functional
[20] = Effect on Shc protein level in mouse BaF3 cells stably expressing KIF5B-RET-G810R mutant assessed as fold change at 11.1 nM measured after 6 hrs by Western blot analysis (reference value: 1); type: functional
[21] = Effect on Shc protein level in mouse BaF3 cells stably expressing KIF5B-RET-G810R mutant assessed as fold change at 33.3 nM measured after 6 hrs by Western blot analysis (reference value: 1); type: functional
[22] = Induction of apoptosis in mouse BaF3 cells stably expressing wildtype KIF5B-RET fusion protein assessed as viable cells at 100 nM measured after 48 hrs by Annexin V-FITC/7-AAD staining based flow cytometric analysis (reference value: 86.65 %); type: functional; settings: read-out: Activity
[23] = Induction of apoptosis in mouse BaF3 cells stably expressing wildtype KIF5B-RET fusion protein assessed as viable cells at 300 nM measured after 48 hrs by Annexin V-FITC/7-AAD staining based flow cytometric analysis (reference value: 86.65 %); type: functional; settings: read-out: Activity
[24] = Induction of apoptosis in mouse BaF3 cells stably expressing wildtype KIF5B-RET fusion protein assessed as early apoptotic cells at 300 nM measured after 48 hrs by Annexin V-FITC/7-AAD staining based flow cytometric analysis (reference value: 9.92 %); type: functional
[25] = Induction of apoptosis in mouse BaF3 cells stably expressing KIF5B-RET-G810C mutant assessed as viable cells at 33.3 nM measured after 48 hrs by Annexin V-FITC/7-AAD staining based flow cytometric analysis (reference value: 86.58 %); type: functional; settings: read-out: Activity
[26] = Induction of apoptosis in mouse BaF3 cells stably expressing KIF5B-RET-G810C mutant assessed as viable cells at 100 nM measured after 48 hrs by Annexin V-FITC/7-AAD staining based flow cytometric analysis (reference value: 86.58 %); type: functional; settings: read-out: Activity
[27] = Induction of apoptosis in mouse BaF3 cells stably expressing KIF5B-RET-G810C mutant assessed as early apoptotic cells at 300 nM measured after 48 hrs by Annexin V-FITC/7-AAD staining based flow cytometric analysis (reference value: 8.57 %); type: functional
[28] = Induction of apoptosis in mouse BaF3 cells stably expressing KIF5B-RET-G810C mutant assessed as necrotic cells at 300 nM measured after 48 hrs by Annexin V-FITC/7-AAD staining based flow cytometric analysis (reference value: 2.89 %); type: functional
[29] = Induction of apoptosis in mouse BaF3 cells stably expressing KIF5B-RET-G810C mutant assessed as necrotic cells at 900 nM measured after 48 hrs by Annexin V-FITC/7-AAD staining based flow cytometric analysis (reference value: 2.89 %); type: functional
BaF3 [30] = test: Antitumor activity against mouse BaF3 cells stably expressing KIF5B-RET-G810C mutant implanted in male BALB/c mouse model assessed as tumor growth inhibition at 10 mg/kg, ip administered daily for 14 days relative to control; type: functional; settings: BaF3, 336 h, time 14 day, read-out: TGI

## COc1ccc(CN2C3CC2CN(c2ccc(-c4cc(-c5cnn(C6CCN(CCCCCC#Cc7cccc8c7CN(C7CCC(=O)NC7=O)C8=O)CC6)c5)cn5ncc(C#N)c45)cn2)C3)cn1 (stereo not given)
BaF3 [1]
  IC50: 0.01 µM
BaF3 [2]
  IC50: 0.05 µM
BaF3 [3]
  IC50: 0.15 µM
[4]
  Ratio IC50: ~7
[5]
  IC50: 0.0057 µM
[6]
  Activity: 61.6%
[7]
  DC50: 0.0172 µM
BaF3 [8]
  Activity: inactive
BaF3 [9]
  IC50: 0.05 µM
[10]
  Ratio IC50: ~8.8
[11]
  fold change (FC): 0.5
[12]
  fold change (FC): 0.3
[13]
  fold change (FC): 0.2
[14]
  fold change (FC): 1
[15]
  fold change (FC): 0.7
[16]
  fold change (FC): 0.2
[17]
  fold change (FC): 0.1
[18]
  fold change (FC): 1
[19]
  fold change (FC): 0.9
[20]
  fold change (FC): 0.9
[21]
  fold change (FC): 0.9
[22]
  viability at 0.1 µM: 64.9%
[23]
  viability at 0.3 µM: 50.2%
[24]
  Activity: 48.33%
[25]
  viability at 0.0333 µM: 85.5%
[26]
  viability at 0.1 µM: 75.4%
[27]
  Activity: 31.81%
[28]
  Activity: 2.15%
[29]
  Activity: 1.26%
BaF3 [30]
  inhibition in vivo at 10 mg/kg: 31.6%
